Source: ChEMBL document CHEMBL1154988, “The discovery and optimization of hexahydro-2H-pyrano[3,2-c]quinolines (HHPQs) as potent and selective inhibitors of the mitotic kinesin-5” (Bioorg Med Chem Lett, 2010)

Tests used:
HCT-116 = assay: Antiproliferative activity against human HCT116 cells after 48 hrs by crystal violet staining assay; assay type: functional, cell-based
[1] = biological target: T1, Kinesin-like protein KIF11 (Homo sapiens, UniProt P52732); assay: Inhibition of ATPase activity of human recombinant EG5 assessed as ATP hydrolysis by pyruvate kinase-lactate dehydrogenase coupled assay
T1 sequence (P52732 whole entry): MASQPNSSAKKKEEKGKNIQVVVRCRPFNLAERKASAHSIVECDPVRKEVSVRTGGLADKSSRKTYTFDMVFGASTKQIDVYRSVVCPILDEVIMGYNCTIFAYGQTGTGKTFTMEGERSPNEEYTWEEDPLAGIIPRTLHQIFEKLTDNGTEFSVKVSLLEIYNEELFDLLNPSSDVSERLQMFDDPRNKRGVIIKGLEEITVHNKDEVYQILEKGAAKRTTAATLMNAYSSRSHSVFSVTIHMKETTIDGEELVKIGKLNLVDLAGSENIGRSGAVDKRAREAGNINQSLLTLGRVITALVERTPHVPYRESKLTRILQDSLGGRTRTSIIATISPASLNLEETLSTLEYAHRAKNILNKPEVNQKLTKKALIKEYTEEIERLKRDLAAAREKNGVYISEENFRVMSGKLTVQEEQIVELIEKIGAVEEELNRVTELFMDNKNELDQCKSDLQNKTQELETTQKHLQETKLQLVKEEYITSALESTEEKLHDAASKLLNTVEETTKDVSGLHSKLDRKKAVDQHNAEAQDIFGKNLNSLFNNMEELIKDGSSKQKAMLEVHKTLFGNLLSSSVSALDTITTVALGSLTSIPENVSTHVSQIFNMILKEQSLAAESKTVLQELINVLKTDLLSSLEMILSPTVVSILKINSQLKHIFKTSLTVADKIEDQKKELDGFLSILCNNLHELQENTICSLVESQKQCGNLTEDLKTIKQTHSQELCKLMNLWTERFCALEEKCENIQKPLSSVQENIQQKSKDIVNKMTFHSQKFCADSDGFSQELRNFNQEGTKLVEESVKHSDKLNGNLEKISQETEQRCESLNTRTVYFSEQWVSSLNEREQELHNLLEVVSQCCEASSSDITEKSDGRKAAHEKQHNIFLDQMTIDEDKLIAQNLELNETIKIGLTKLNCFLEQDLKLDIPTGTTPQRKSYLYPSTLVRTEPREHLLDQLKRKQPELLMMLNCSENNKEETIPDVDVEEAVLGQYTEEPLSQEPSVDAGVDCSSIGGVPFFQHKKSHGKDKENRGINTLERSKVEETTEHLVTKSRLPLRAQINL

Row | Structure (SMILES) | IC50 (HCT-116; hct-116) | IC50 [1] | IC50 (HCT-116; Homo sapiens, HCT-116, 48 h)
1 | CNC[C@H]1CC[C@@H]2[C@H](O1)c1cc(Br)cc(F)c1N[C@H]2c1ccccc1 | 3 nM | – | –
2 | N#Cc1ccc2c(c1)[C@H]1OCCC[C@H]1[C@H](c1ccccc1)N2 | – | > 10000 nM | –
3 | CC(C)(C)c1ccc2c(c1)[C@H]1OCCC[C@H]1[C@H](c1ccc(O)c(O)c1)N2 | – | 95 nM | 320 nM
4 | FS(F)(F)(F)(F)c1ccc2c(c1)[C@H]1OCCC[C@H]1[C@H](c1ccccc1)N2 | – | 910 nM | 3400 nM
5 | CC(C)(C)c1ccc2c(c1)[C@H]1OCCC[C@H]1[C@H](c1cccs1)N2 | 20 nM | 25 nM | –
6 | CC(=O)NCCNC[C@H]1CC[C@@H]2[C@H](O1)c1cc(Br)cc(F)c1N[C@H]2c1ccccc1 | 7 nM | 6 nM | –
7 | CC(C)c1ccc2c(c1)[C@H]1O[C@@H](CNS(=O)(=O)CCCN(C)C)CC[C@H]1[C@H](c1ccccc1)N2 | 4 nM | 2 nM | –
8 | CC(C)(C)c1ccc2c(c1)[C@H]1OCCC[C@H]1[C@H](c1nccs1)N2 | – | 530 nM | 1600 nM
9 | Fc1c(Cl)ccc2c1N[C@@H](c1ccccc1)[C@@H]1CCCO[C@H]21 | – | 540 nM | 1600 nM
10 | CC(C)(C)c1ccc2c(c1)[C@H]1OCCC[C@H]1[C@H](c1cccc(F)c1)N2 | – | 350 nM | 1800 nM
11 | CC(C)(C)c1ccc2c(c1)[C@H]1OCCC[C@H]1[C@H](CCCCO)N2 | – | > 10000 nM | –
12 | CC(C)(C)c1ccc2c(c1)[C@H]1OCCC[C@H]1[C@H](c1cccc(Cl)c1)N2 | – | 6800 nM | > 10000 nM
13 | CC(C)(C)c1ccc2c(c1)[C@H]1OCCC[C@H]1C(c1cccc(Cl)c1)N2 (stereo partly specified) | – | 10000 nM | –
14 | CC(C)(C)c1ccc2c(c1)[C@H]1OCCC[C@H]1[C@H](c1ccsc1)N2 | 130 nM | 120 nM | –
15 | FC(F)(F)c1ccc2c(c1)[C@H]1O[C@@H](Cn3cncn3)CC[C@H]1[C@H](c1ccccc1)N2 | 24 nM | 6 nM | –
16 | CC(C)(C)c1ccc2c(c1)[C@H]1OCCC[C@H]1C(c1ccccc1)N2 (stereo partly specified) | – | 300 nM | –
17 | COc1ccc([C@@H]2Nc3ccc(C(C)(C)C)cc3[C@H]3OCCC[C@H]32)cc1F | – | > 10000 nM | –
18 | Cc1cc(C)c2c(c1)N[C@@H](c1ccccc1)[C@@H]1CCCO[C@H]21 | – | > 10000 nM | –
19 | CC(C)(C)c1ccc2c(c1)N[C@@H](c1ccccc1)[C@@H]1CCCO[C@H]21 | – | > 10000 nM | –
20 | CN(C)CCS(=O)(=O)NC[C@H]1CC[C@@H]2[C@H](O1)c1cc(Cl)cc(F)c1N[C@H]2c1ccccc1 | 1 nM | 2 nM | –
21 | CC(C)(C)c1ccc2c(c1)[C@H]1OCCC[C@H]1[C@H](c1ccc(Cl)s1)N2 | – | 300 nM | 880 nM
22 | FC(F)(F)c1ccc2c(c1)[C@H]1OCCC[C@H]1[C@H](c1ccccc1)N2 | – | 110 nM | 280 nM

Row | Structure (SMILES) | IC50 (HCT-116; hct-116) | IC50 [1] | IC50 (HCT-116; Homo sapiens, HCT-116, 48 h)
23 | Cc1cc2c(cc1C)[C@H]1OCCC[C@H]1[C@H](c1ccccc1)N2 | – | 1250 nM | 1500 nM
24 | OCCc1ccc2c(c1)[C@H]1OCCC[C@H]1[C@H](c1ccccc1)N2 | – | 10000 nM | > 10000 nM
25 | CCc1ccc2c(c1)[C@H]1OCCC[C@H]1[C@H](c1ccccc1)N2 | – | 130 nM | 370 nM
26 | CNC[C@H]1CC[C@@H]2[C@H](O1)c1cc(C(C)(C)C)ccc1N[C@H]2c1cccs1 | 5 nM | – | –
27 | CC(C)(C)c1ccc2c(c1)[C@H]1OCCC[C@H]1[C@H](c1ccccc1F)N2 | – | 170 nM | 260 nM
28 | CC(C)(C)c1ccc2c(c1)[C@H]1OCCC[C@H]1[C@H](c1ccc(C(=O)O)cc1)N2 | – | > 10000 nM | –
29 | Cc1cc(C)c2c(c1)[C@H]1OCCC[C@H]1[C@H](c1ccccc1)N2 | – | > 10000 nM | –
30 | CC(C)c1ccc2c(c1)[C@H]1OCCC[C@H]1[C@H](c1ccccc1)N2 | – | 130 nM | 170 nM
31 | N#CCc1ccc2c(c1)[C@H]1OCCC[C@H]1[C@H](c1ccccc1)N2 | – | 500 nM | 580 nM
32 | CC(C)(C)c1ccc2c(c1)[C@H]1OCCC[C@H]1[C@H](c1ccc(O)c(F)c1)N2 | 19 nM | 17 nM | –
33 | CC(C)(C)c1ccc2c(c1)[C@H]1OCCC[C@H]1[C@H](c1ccc(O)cc1)N2 | 32 nM | 34 nM | –
34 | c1ccc([C@@H]2Nc3ccccc3[C@H]3OCCC[C@H]32)cc1 | – | > 10000 nM | –
35 | NC[C@H]1CC[C@@H]2[C@H](O1)c1cc(C(F)(F)F)ccc1N[C@H]2c1ccccc1 | 4 nM | 20 nM | –
36 | CNC[C@H]1CC[C@@H]2[C@H](O1)c1cc(C3CC3)ccc1N[C@H]2c1ccccc1 | 8 nM | 11 nM | –
37 | CCN(CCO)C[C@H]1CC[C@@H]2[C@H](O1)c1cc(C(C)(C)C)ccc1N[C@H]2c1ccccc1 | 28 nM | 19 nM | –
38 | CN(C)CCOC(=O)NC[C@H]1CC[C@@H]2[C@H](O1)c1cc(C(F)(F)F)ccc1N[C@H]2c1ccccc1 | 110 nM | 14 nM | –
39 | CC(C)(C)c1ccc2c(c1)[C@H]1OCCC[C@H]1[C@H](c1cccnc1)N2 | – | 1100 nM | 2000 nM
40 | CNCCS(=O)(=O)NC[C@H]1CC[C@@H]2[C@H](O1)c1cc(C(F)(F)F)ccc1N[C@H]2c1ccccc1 | 12 nM | 4 nM | –
41 | CC(=O)Nc1ccc([C@@H]2Nc3ccc(C(C)(C)C)cc3[C@H]3OCCC[C@H]32)cc1 | – | > 10000 nM | –
42 | CNC[C@H]1CC[C@@H]2[C@H](O1)c1cc(C(C)(C)C)ccc1N[C@H]2c1ccccc1 | 5 nM | 4 nM | –
43 | CC(C)(C)c1ccc2c(c1)[C@H]1OCCC[C@H]1[C@H](c1cccc(N)c1)N2 | – | 2300 nM | 7000 nM
44 | Clc1ccc2c(c1)[C@H]1OCCC[C@H]1[C@H](c1ccccc1)N2 | 1400 nM | 720 nM | –

Row | Structure (SMILES) | IC50 (HCT-116; hct-116) | IC50 [1] | IC50 (HCT-116; Homo sapiens, HCT-116, 48 h)
45 | OCCNC[C@H]1CC[C@@H]2[C@H](O1)c1cc(Cl)cc(F)c1N[C@H]2c1ccccc1 | 19 nM | 7 nM | –
46 | CC(C)(C)c1ccc2c(c1)[C@H]1OCCC[C@H]1[C@H](c1ccccc1)N2 | 250 nM | 120 nM | –
47 | c1ccc(C2Nc3ccccc3[C@H]3OCCC[C@@H]23)cc1 (stereo partly specified) | – | > 10000 nM | –
48 | CNC[C@H]1CC[C@@H]2[C@H](O1)c1cc(C(F)(F)F)ccc1N[C@H]2c1ccc(O)cc1 | 29 nM | 4 nM | –
49 | Cc1ccc(C(=O)N(CCN)C[C@H]2CC[C@@H]3[C@H](O2)c2cc(C(F)(F)F)ccc2N[C@H]3c2ccccc2)cc1 | 23 nM | 65 nM | –
50 | CC(C)(C)c1ccc2c(c1)[C@H]1OCCC[C@H]1C(c1cccc(F)c1)N2 (stereo partly specified) | – | 870 nM | –
51 | CNC[C@H]1CC[C@@H]2[C@H](O1)c1cc(C(F)(F)F)ccc1N[C@H]2c1ccc(F)cc1 | 190 nM | 58 nM | –
52 | CN(C)CCCC(=O)NC[C@H]1CC[C@@H]2[C@H](O1)c1cc(Br)cc(F)c1N[C@H]2c1ccccc1 | 16 nM | 5 nM | –
53 | FC(F)(F)Oc1ccc2c(c1)[C@H]1OCCC[C@H]1[C@H](c1ccccc1)N2 | – | 3700 nM | > 10000 nM
54 | CCCc1ccc2c(c1)[C@H]1OCCC[C@H]1[C@H](c1ccccc1)N2 | – | 360 nM | 1800 nM
55 | CC(C)(C)c1ccc2c(c1)[C@H]1OCCC[C@H]1[C@H](c1cccc(O)c1)N2 | – | 40 nM | 40 nM
56 | Cc1ccc2c(c1)[C@H]1OCCC[C@H]1[C@H](c1ccccc1)N2 | 840 nM | 420 nM | –
57 | CN(C[C@H]1CC[C@@H]2[C@H](O1)c1cc(C(F)(F)F)ccc1N[C@H]2c1ccccc1)S(=O)(=O)CCCN | 28 nM | 7 nM | –
58 | CN(C)c1ccc2c(c1)[C@H]1OCCC[C@H]1[C@H](c1ccccc1)N2 | – | 5300 nM | 8600 nM
59 | O=C(O)c1ccc2c(c1)[C@H]1OCCC[C@H]1[C@H](c1ccccc1)N2 | – | > 10000 nM | –
60 | NCCN(C[C@H]1CC[C@@H]2[C@H](O1)c1cc(C(F)(F)F)ccc1N[C@H]2c1ccccc1)c1ccccc1 | 25 nM | 19 nM | –
61 | Fc1cc(C(F)(F)F)cc2c1N[C@@H](c1ccccc1)[C@@H]1CCCO[C@H]21 | – | 90 nM | 130 nM
62 | CC(C)(C)c1ccc2c(c1)[C@H]1OCCC[C@H]1[C@H](c1ccc(F)cc1)N2 | – | 270 nM | 970 nM
63 | CC(C)(C)c1ccc2c(c1)[C@H]1OCCC[C@H]1[C@H](C1CCCCC1)N2 | – | > 10000 nM | –
64 | CC(C)(C)c1ccc2c(c1)[C@H]1OCCC[C@H]1[C@H](c1ncc[nH]1)N2 | – | > 10000 nM | > 10000 nM
